According to US8653091B2, “Pyrid-2yl fused heterocyclic compounds, and compositions and uses thereof” (Evotec AG, priority 2007, dated 2014):

Key:
P2X2/3 = P2X2/3 (Homo sapiens (Human), UniProt P56373+Q9UBL9); assay: Calcium uptake assay (P2X antagonist assay), P2X2/3; format: cell-based; settings: inhibition of agonist-induced calcium influx
Text: (§1) Human P2X3 (Accession no. NM_002559), P2X2 (Accession no. NM_170682) and Rat P2X3 (Accession no. NM_031075) and P2X2 (Accession no. NM_053656) are cloned into a mammalian expression vector (e.g., pcDNA5/TO or pcDNA3 Invitrogen). The human P2X2/3 chimera clone is created as described by Neelands et al, and then cloned into an expression vector as above. Receptors are expressed in cells (e.g., HEK293 or 1321N1 (obtained from the ECACC)) via transient transfection using standard lipid mediated transfection, or by creation of stable transfectants for each receptor. For expression of the P2X2/3 heteromeric receptor, the P2X3 expression vector is stably transfected into a cell line already stably expressing P2X2. P2X2/3 heteromer function is isolated using pharmacological methods. Cell lines are maintained in DMEM+5% Glutamax, the appropriate level of selective antibiotic, and 10% heat inactivated FBS.
(§2) Functional activity of compounds at the P2X receptor is determined by measuring their ability to inhibit agonist-induced calcium influx. Compounds are tested for antagonist activity against the P2X2/3 chimera, the P2X3 homomer, or the P2X2/3 heteromer. At the start of each screening day, the agonist EC50 is determined. Compound % inhibition or IC50s are subsequently determined using a pre-determined agonist concentration (EC50-90 depending on cell line) as a stimulus. The agonists used are αβMeATP, ATP, or other ATP analogs. Compounds may be tested at concentrations ranging from 1 μM to 10 μM.
(§3) To test for antagonist activity, cells expressing the appropriate receptor are seeded onto 96 or 384 well plates 18-24 hours prior to assay. On the day of the assay, cells are loaded with calcium-sensitive fluorescent dye (e.g., Fluo-4 no wash reagent-Invitrogen cat#F36206, or the BD™ PBX Calcium Assay Kit—BD cat#640175) in Hank's Buffered Salt Solution (HESS) with up to 10 mM supplemental CaCl2. Plates are incubated at 37° C. and then equilibrated at room temperature. Antagonism of agonist-induced calcium influx is measured using a fluorescent imaging plate reader (e.g. FLIPR^TETRA, Molecular Devices, Sunnyvale, Calif.). The assay comprises two stages: a pre-treatment phase followed by a treatment phase. Compounds may be tested as follows: For the pre-treatment phase, 50 μL of 3× concentration of test compound in HBSS is added to cells containing 100 μL of dye loading media to achieve a final concentration of 1× test compound. For the treatment phase, at a set interval after pre-treatment (1-30 minutes), 50 μL of 1× test compound plus […] solution is added, resulting in a final concentration of 1× compound and 1× agonist. Fluorescence is measured at 0.1-3 second intervals—with an excitation wavelength of 494 nm and an emission wavelength of 515 nm. Responses are measured as (peak fluorescence after agonist addition) minus (baseline fluorescence prior to treatment). Percent inhibition is calculated as follows: […]
(§4) IC50 values are determined by analyzing dose response data in a 4 parameter logistic fit using GraphPad Prizm.

P2X3 = P2X3 (Homo sapiens (Human), UniProt P56373); assay: Calcium uptake assay (P2X antagonist assay), P2X3; format: cell-based; settings: inhibition of agonist-induced calcium influx
Text: as §1, §2, §3, §4

P2X3, sequence (P56373 whole entry): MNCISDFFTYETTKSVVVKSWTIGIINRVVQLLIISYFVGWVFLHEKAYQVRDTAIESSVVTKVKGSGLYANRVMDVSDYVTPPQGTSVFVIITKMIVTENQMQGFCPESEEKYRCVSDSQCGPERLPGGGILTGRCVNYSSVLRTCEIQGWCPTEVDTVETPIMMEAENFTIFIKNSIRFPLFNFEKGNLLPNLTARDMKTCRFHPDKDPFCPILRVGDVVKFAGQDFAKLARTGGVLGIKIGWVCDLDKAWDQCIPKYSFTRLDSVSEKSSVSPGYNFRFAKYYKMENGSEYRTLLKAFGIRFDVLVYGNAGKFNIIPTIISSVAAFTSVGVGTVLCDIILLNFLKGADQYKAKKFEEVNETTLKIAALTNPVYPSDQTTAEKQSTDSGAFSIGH
P2X2/3, sequence (Q9UBL9 whole entry): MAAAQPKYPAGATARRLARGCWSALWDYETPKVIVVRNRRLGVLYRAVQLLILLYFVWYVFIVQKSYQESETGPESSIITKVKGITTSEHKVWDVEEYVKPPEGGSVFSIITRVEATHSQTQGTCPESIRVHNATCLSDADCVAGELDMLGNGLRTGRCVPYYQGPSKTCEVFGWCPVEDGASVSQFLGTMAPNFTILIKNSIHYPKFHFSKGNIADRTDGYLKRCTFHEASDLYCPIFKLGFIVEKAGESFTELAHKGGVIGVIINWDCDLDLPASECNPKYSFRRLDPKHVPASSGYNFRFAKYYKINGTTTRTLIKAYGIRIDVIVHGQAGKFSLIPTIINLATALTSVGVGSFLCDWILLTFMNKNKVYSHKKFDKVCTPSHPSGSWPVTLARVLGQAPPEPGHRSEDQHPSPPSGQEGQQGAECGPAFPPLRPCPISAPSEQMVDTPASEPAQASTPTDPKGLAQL
P2X2/3, sequence (P56373 whole entry): as the sequence (P56373 whole entry) above

SMILES: Cc1ccc(N2CCc3ncnc(NC(C)c4ccc(F)cc4F)c3C2)nc1 (stereo not drawn) [Compound 18, [1-(2,4-Difluoro-phenyl)-ethyl]-[6-(5-methyl-pyridin-2-yl)-5,6,7,8-tetrahydro-pyrido[4,3-d]pyrimidin-4-yl]-amine]
- IC50 (P2X2/3): 3070 nM
- IC50 (P2X3): 50 nM

SMILES: COc1ccc(C(C)Nc2ncnc3c2CN(c2ccc(C)cn2)CC3)cc1F (stereo not drawn) [Compound 21, [1-(3-Fluoro-4-methoxy-phenyl)-ethyl]-[6-(5-methyl-pyridin-2-yl)-5,6,7,8-tetrahydro-pyrido[4,3-d]pyrimidin-4-yl]-amine]
- IC50 (P2X2/3): 1060 nM
- IC50 (P2X3): 80 nM

SMILES: Cc1ccc(N2CCc3ncnc(NC(CCO)c4ccccc4)c3C2)nc1 (stereo not drawn) [Compound 32, 3-[6-(5-Methyl-pyridin-2-yl)-5,6,7,8-tetrahydro-pyrido[4,3-d]pyrimidin-4-ylamino]-3-phenyl-propan-1-ol]
- IC50 (P2X2/3): 3880 nM
- IC50 (P2X3): 143 nM

SMILES: Cc1ccc([C@@H](C)Nc2ncnc3c2CN(c2ccc(C)cn2)CC3)cc1 [Compound 34]
- IC50 (P2X2/3): 1460 nM
- IC50 (P2X3): 47 nM

SMILES: Cc1ccc(N2CCc3ncnc(NC(C)c4ccc(Cl)c(F)c4)c3C2)nc1 (stereo not drawn) [Compound 39, [1-(4-Chloro-3-fluoro-phenyl)-ethyl]-[6-(5-methyl-pyridin-2-yl)-5,6,7,8-tetrahydro-pyrido[4,3-d]pyrimidin-4-yl]-amine]
- IC50 (P2X2/3): 1420 nM
- IC50 (P2X3): 43 nM

SMILES: COc1cccc([C@@H](C)Nc2ncnc3c2CN(c2ccc(C)cn2)CC3)c1 [Compound 47, [(R)-1-(3-Methoxy-phenyl)-ethyl]-[6-(5-methyl-pyridin-2-yl)-5,6,7,8-tetrahydro-pyrido[4,3-d]pyrimidin-4-yl]-amine]
- IC50 (P2X2/3): 705 nM
- IC50 (P2X3): 21 nM

SMILES: Cc1ccc(N2CCc3ncnc(N[C@H](C)c4ccc(F)cc4)c3C2)nc1 [Compound 49, [(R)-1-(4-Fluoro-phenyl)-ethyl]-[6-(5-methyl-pyridin-2-yl)-5,6,7,8-tetrahydro-pyrido[4,3-d]pyrimidin-4-yl]-amine]
- IC50 (P2X2/3): 1220 nM
- IC50 (P2X3): 19 nM

SMILES: Cc1ccc(N2CCc3ncnc(N[C@H](C)c4ccc(C(F)(F)F)nc4)c3C2)nc1 [Compound 50, (R)-6-(5-Methylpyridin-2-yl)-N-(1-(6-(trifluoromethyl)pyridin-3-yl)ethyl)-5,6,7,8-tetrahydropyrido[4,3-d]pyrimidin-4-amine]
- IC50 (P2X2/3): 279 nM
- IC50 (P2X3): 15 nM

SMILES: Cc1ccc(N2CCc3ncnc(N[C@H](CO)c4ccc(C(F)(F)F)cc4)c3C2)nc1 [Compound 55, (S)-2-(6-(5-Methylpyridin-2-yl)-5,6,7,8-tetrahydropyrido[4,3-d]pyrimidin-4-ylamino)-2-(4-(trifluoromethyl)phenyl)ethanol]
- IC50 (P2X2/3): 3970 nM
- IC50 (P2X3): 158 nM

SMILES: Cc1ccc(N2CCc3ncnc(NC(CCO)c4ccc(C(F)(F)F)nc4)c3C2)nc1 (stereo not drawn) [Compound 56, 3-[6-(5-Methyl-pyridin-2-yl)-5,6,7,8-tetrahydro-pyrido[4,3-d]pyrimidin-4-ylamino]-3-(6-trifluoromethyl-pyridin-3-yl)-propan-1-ol]
- IC50 (P2X2/3): 522 nM
- IC50 (P2X3): 67 nM

SMILES: COc1ccc([C@@H](CCO)Nc2ncnc3c2CN(c2ccc(Cl)cn2)CC3)cn1 [Compound 57, (R)-3-[6-(5-Chloro-pyridin-2-yl)-5,6,7,8-tetrahydro-pyrido[4,3-d]pyrimidin-4-ylamino]-3-(6-methoxy-pyridin-3-yl)-propan-1-ol]
- IC50 (P2X2/3): 318 nM
- IC50 (P2X3): 103 nM

SMILES: COc1ccc([C@@H](CCO)Nc2ncnc3c2CN(c2ccc(C)cn2)CC3)cn1 [Compound 58, (R)-3-(6-Methoxy-pyridin-3-yl)-3-[6-(5-methyl-pyridin-2-yl)-5,6,7,8-tetrahydro-pyrido[4,3-d]pyrimidin-4-ylamino]-propan-1-ol]
- IC50 (P2X2/3): 83 nM
- IC50 (P2X3): 29 nM

SMILES: COc1ccc([C@@H](CO)Nc2ncnc3c2CN(c2ccc(Cl)cn2)CC3)cn1 [Compound 59, (S)-2-[6-(5-Chloro-pyridin-2-yl)-5,6,7,8-tetrahydro-pyrido[4,3-d]pyrimidin-4-ylamino]-2-(6-methoxy-pyridin-3-yl)-ethanol]
- IC50 (P2X2/3): 276 nM
- IC50 (P2X3): 90 nM

SMILES: COc1ccc([C@@H](CO)Nc2ncnc3c2CN(c2ccc(C)cn2)CC3)cn1 [Compound 60, (S)-2-(6-Methoxy-pyridin-3-yl)-2-[6-(5-methyl-pyridin-2-yl)-5,6,7,8-tetrahydro-pyrido[4,3-d]pyrimidin-4-ylamino]-ethanol]
- IC50 (P2X2/3): 97 nM
- IC50 (P2X3): 27 nM

SMILES: Cc1ccc(N2CCc3ncnc(N[C@H](CCO)c4ccc(C)nc4)c3C2)nc1 [Compound 61, (R)-3-(6-Methyl-pyridin-3-yl)-3-[6-(5-methyl-pyridin-2-yl)-5,6,7,8-tetrahydro-pyrido[4,3-d]pyrimidin-4-ylamino]-propan-1-ol]
- IC50 (P2X2/3): 133 nM
- IC50 (P2X3): 28 nM

SMILES: Cc1ccc(N2CCc3ncnc(NC(CO)c4cccnc4)c3C2)nc1 (stereo not drawn) [Compound 62, 2-[6-(5-Methyl-pyridin-2-yl)-5,6,7,8-tetrahydro-pyrido[4,3-d]pyrimidin-4-ylamino]-2-pyridin-3-yl-ethanol]
- IC50 (P2X2/3): 3090 nM
- IC50 (P2X3): 272 nM

SMILES: Cc1ccc(N2CCc3ncnc(N[C@H](CCO)c4ccc(C(F)(F)F)nc4)c3C2)nc1 [Compound 63, (R)-3-[6-(5-Methyl-pyridin-2-yl)-5,6,7,8-tetrahydro-pyrido[4,3-d]pyrimidin-4-ylamino]-3-(6-trifluoromethyl-pyridin-3-yl)-propan-1-ol]
- IC50 (P2X2/3): 335 nM
- IC50 (P2X3): 24 nM

SMILES: Cc1ccc(N2CCc3ncnc(N[C@H](C)c4cnc(C)nc4)c3C2)nc1 [Compound 64, [6-(5-Methyl-pyridin-2-yl)-5,6,7,8-tetrahydro-pyrido[4,3-d]pyrimidin-4-yl]-[(R)-1-(2-methyl-pyrimidin-5-yl)-ethyl]-amine]
- IC50 (P2X2/3): 260 nM
- IC50 (P2X3): 17 nM
